The record followed here is patent US20110021505A1, “Use of sulfonyl-substituted 2-sulfonylaminobenzoic acid N-phenylamides in the treatment of pain” (SANOFI-AVENTIS DEUTSCHLAND GMBH, priority 2007, published 2011).

In the experiment the test system is thermal hyperalgesia of the hind paws induced by injection of carrageenan. Kind of experiment: Anti-hyperalgesic effect in the carrageenan model of inflammatory triggered thermal hyperalgesia in mice after oral administration. It counts as in vivo, male C57B6 mice. The arrangement: key to Statistical evaluation vs. control (AUC1 h-6 h of PWL): ns: not significant; ***: significant, p < 0.0001 (ANOVA & Dunnett). The settings on record: for Mean PWL (paw withdrawal latency) ± SEM: N=6 paws; for Statistical evaluation vs. control (AUC1 h-6 h of PWL): 1-way ANOVA & Dunnett; for AUC1 h-6 h of PWL (mean ± SEM): 1 h to 6 h after carrageenan, N=6. The method, then: In this in vivo model the anti-hyperalgesic effect was determined in mice in which a thermal hyperalgesia of the hind paws had been induced by injection of carrageenan, by measuring the paw withdrawal latency (PWL), i.e. the time until the mouse withdrew its hind paw from a heated spot of the ground. These experiments and all other animal experiments were performed in accordance with animal protection law and guidelines for the use of experimental animals.
Three test groups and one control group of animals were used each consisting of three male C57B6 mice. 1 h before injection of carrageenan, either the test compound or vehicle was administered to the animals orally by gavage. In the test groups, mice received 100 μl/10 g body weight of a suspension of the test compound in vehicle MC/T80 comprising 0.1 mg/ml, 0.3 mg/ml or 1 mg/ml (prepared as described in pharmaceutical example A) for attaining a dosage of 1 mg/kg body weight, 3 mg/kg body weight and 10 mg/kg body weight, respectively. In the control group, mice analogously received 100 μl/10 g body weight of vehicle MC/T80. For induction of hind paw inflammatory pain, then in all groups carrageenan (Sigma, Deisenhofen, Germany) at a concentration of 2% in 10 μl of saline was injected into the plantar aspect of both hind paws of the mice under slight general isofluran anesthesia. 1 h before injection of carrageenan, i.e. immediately before administration of the test compound or vehicle, and 1 h, 2 h, 4 h and 6 h after injection of carrageenan, thermal hyperalgesia was determined.
Thermal hyperalgesia was determined by measuring the paw withdrawal latency (PWL) by means of the automatic plantar test, first described for rats in K. Hargreaves et al., Pain 32 (1988), 77-88, and used in an adapted version fitted to mice described in H. Gühring et al., J. Neurosci. 20 (2000), 6714-6720. To restrict animal movement, 10.5×13.0×4.5 cm test cages were used. Instead of a glass floor, a metal grid bottom was used. PWL (in seconds) was determined on exposure of the paw to a defined thermal stimulus using a commercially available apparatus (Plantar Test, Ugo Basile Biological Research Apparatus, Comerio, Italy) fitted with a mini camera to ensure proper placement of the infrared heat below the hind paw of interest. The timer which measured the duration of reflected infrared light by the hind paw was started by the investigator and stopped once the animal shook the affected paw. A cut-off was set at 16 seconds to prevent tissue damage. For each hind paw and each time point, the mean of three to four PWL measurements was determined.
The given PWL values (in seconds) are the mean±SEM (standard error of the mean) of the PWL values obtained for each hind paw of each animal (N (number of paws)=6) of the indicated dosage group at the time points 1 h, 2 h, 4 h and 6 h after injection of carrageenan, as well as the baseline PWL values (BL) determined 1 h before administration of the test compound or vehicle and injection of carrageenan.
For the statistical analysis, PWL values were used in two ways, first with a 2-way ANOVA test based on the PWL values and second with a 1-way ANOVA test based on the area under the curve (AUC) values for the time period of 6 h after injection of carrageenan. A repeated measures 2-way ANOVA test (factor treatment and repeated measures factor time) was performed on PWL measurements. In case the interaction (treatment×time) was statistically significant, a Winer complementary analysis was done to investigate the effect of treatment for each time point. A Dunnett's test was used to study the potential differences between the control group and the test groups. […]

On to `O=C(Nc1ccc(S(=O)(=O)N2CCOCC2)cc1)c1cc(Cl)ccc1NS(=O)(=O)c1ccc(Cl)s1.[Na]` [Example 94, 5-Chloro-2-(5-chloro-thiophene-2-sulfonylamino)-N-(4-(morpholine-4-sulfonyl)-phenyl)-benzamide sodium salt], for which the “Mean PWL (paw withdrawal latency) ± SEM” value came out at 11.08 ± 0.40 s (1 mg/kg body weight group, BL baseline before administration and carrageenan); 4.08 ± 0.62 s (1 mg/kg body weight oral, 1 h after carrageenan); 3.80 ± 0.28 s (1 mg/kg body weight oral, 2 h after carrageenan); 3.98 ± 0.79 s (1 mg/kg body weight oral, 4 h after carrageenan); 3.86 ± 0.48 s (1 mg/kg body weight oral, 6 h after carrageenan); 10.69 ± 0.27 s (3 mg/kg body weight group, BL baseline before administration and carrageenan). The “Mean PWL (paw withdrawal latency) ± SEM” value reads like this: (3 mg/kg body weight oral, 1 h after carrageenan) 8.42 ± 0.53 s; (3 mg/kg body weight oral, 2 h after carrageenan) 10.16 ± 0.33 s; (3 mg/kg body weight oral, 4 h after carrageenan) 10.84 ± 0.63 s; (3 mg/kg body weight oral, 6 h after carrageenan) 3.74 ± 0.47 s; (10 mg/kg body weight group, BL baseline before administration and carrageenan) 10.97 ± 0.40 s; (10 mg/kg body weight oral, 1 h after carrageenan) 12.46 ± 0.91 s. For the same compound, the “Mean PWL (paw withdrawal latency) ± SEM” value is, setting by setting: (10 mg/kg body weight oral, 2 h after carrageenan) 11.24 ± 0.77 s; (10 mg/kg body weight oral, 4 h after carrageenan) 11.11 ± 0.54 s; (10 mg/kg body weight oral, 6 h after carrageenan) 3.40 ± 0.46 s. In addition, the “Statistical evaluation vs. control (AUC1 h-6 h of PWL)” value is reported as “ns” (1 mg/kg body weight oral); “*** (significant, p < 0.0001 (ANOVA & Dunnett))” (3 mg/kg body weight oral); “*** (significant, p < 0.0001 (ANOVA & Dunnett))” (10 mg/kg body weight oral). Moreover, the “AUC1 h-6 h of PWL (mean ± SEM)” value by setting is: (1 mg/kg body weight oral) 19.57 ± 2.19; (3 mg/kg body weight oral) 44.87 ± 1.21; (10 mg/kg body weight oral) 48.70 ± 2.06. The “Anti-hyperalgesic effect on PWL vs. control (2-way ANOVA, Dunnett)” value (3 mg/kg and 10 mg/kg body weight oral, from 1 h to 4 h after carrageenan injection) was “Statistically significant anti-hyperalgesic effects”.
